Source: US20200405666A9, “TREATMENT OF SYMPTOMS ASSOCIATED WITH FEMALE GASTROPARESIS” (priority 2011, published 2020)

Test system: symptoms of diabetic gastroparesis
Test: Phase 2 randomized, double-blind, placebo-controlled study METO-IN-002 of metoclopramide nasal spray: symptom scores (mGCSI-DD, GCSI-DD, PAGI-SYM, other endpoints)
Assay type: in vivo, human
Design: key to Stomach Fullness / Early Satiety / Feeling Full / Loss of Appetite / Bloating / Stomach Larger / Upper Abdominal Pain / Upper Abdominal Discomfort / mGCSI-DD (primary endpoint) / Nausea / Retching / Vomiting / Sheehan Disability Scales / Investigator Assessment of Overall Gastroparesis Severity / Subject Assessment of Overall Gastroparesis Severity / Investigator Assessment of Overall Treatment Effect / Subject Assessment of Overall Treatment Effect / Days w/o Vomiting / Days w/o Nausea / Days w/o Vomiting or Nausea / Days w/o Upper Abdominal Pain or Upper Abdominal Discomfort / Nausea Response by Response Threshold / GCSI-DD / Days w/o Vomiting or Retching &, No Use of Rescue Medication / Nausea Responder Analysis / Overall Severity of Gastroparesis Symptoms - Subject / PAGI-SYM Questionnaire / Nausea/Vomiting (listed under PAGI-SYM Questionnaire) / Bloating (listed under PAGI-SYM Questionnaire) / Upper Abdominal Pain/Discomfort (listed under PAGI-SYM Questionnaire) / Early Satiety (listed under PAGI-SYM Questionnaire): A=Favors Active; P=Favors Placebo
Conditions: for Statistically significant improvement in mGCSI-DD score (in words): 10 mg IN and 14 mg IN arms, Baseline to Week 4; for Bloating / Bloating (listed under PAGI-SYM Questionnaire) / Days w/o Nausea / Days w/o Upper Abdominal Pain or Upper Abdominal Discomfort / Days w/o Vomiting / Days w/o Vomiting or Nausea / Days w/o Vomiting or Retching &, No Use of Rescue Medication / Early Satiety / Early Satiety (listed under PAGI-SYM Questionnaire) / Feeling Full / GCSI-DD / Investigator Assessment of Overall Gastroparesis Severity / Investigator Assessment of Overall Treatment Effect / Loss of Appetite / Nausea / Nausea Responder Analysis / Nausea Response by Response Threshold / Nausea/Vomiting (listed under PAGI-SYM Questionnaire) / Overall Severity of Gastroparesis Symptoms - Subject / PAGI-SYM Questionnaire / Retching / Sheehan Disability Scales / Stomach Fullness / Stomach Larger / Subject Assessment of Overall Gastroparesis Severity / Subject Assessment of Overall Treatment Effect / Upper Abdominal Discomfort / Upper Abdominal Pain / Upper Abdominal Pain/Discomfort (listed under PAGI-SYM Questionnaire) / Vomiting / mGCSI-DD (primary endpoint): Week 4, vs placebo
Description: Example 1: A Multicenter, Randomized, Double-Blind, Placebo-Controlled, Parallel Group, Dose-Ranging Clinical Study to Evaluate the Efficacy and Safety of Metoclopramide Nasal Spray Solution in Diabetic Subjects with Gastroparesis
The objectives of this study were to evaluate the safety and the effectiveness of two doses of metoclopramide nasal spray solution, 10 mg and 14 mg, compared to placebo in reducing the symptoms of diabetic gastroparesis and to assess the plasma concentrations of two doses of metoclopramide nasal spray in subjects with diabetic gastroparesis following a single dose and at steady state. The aforementioned dosages for the treatment and control of gastroparesis were administered before meals and/or before bed time. Subjects who met the entry criteria after the Washout Period (Day −7 to Day −1) were randomized using an IVRS, to metoclopramide nasal spray 10 mg, 14 mg, or placebo, in roughly equal numbers (approximately 1:1:1) using a predetermined randomization schedule employing permuted blocks. Randomization was preformed centrally.
Metoclopramide nasal spray solution, 200 mg/mL base (as monohydrochloride monohydrate) is a clear colorless to pale-yellow aqueous solution manufactured for Evoke Pharma. The metoclopramide nasal spray was packaged in a 10 mL amber glass vial mounted with a metered nasal spray pump. The metered dose vial delivered a 50 μL or 70 μL spray (10 mg or 14 mg of metoclopramide base respectively) with each actuation. One 10 mL vial contained sufficient metoclopramide nasal spray to deliver 120 doses of 10 mg or 14 mg.
A vehicle control was used as the placebo for metoclopramide nasal spray solution. The placebo spray was packaged in a 10 mL amber glass vial mounted with a metered nasal spray pump. The metered dose vial delivered a 50 μL spray with each actuation. One 10 mL vial contained sufficient placebo to deliver 120 doses. The delivery of either a 50 μL or 70 μL spray is indistinguishable to the subject or study staff.
A 7-day Washout Period preceded randomization. During this time, and for the duration of the study, subjects were asked to discontinue use of all medications that are known to ameliorate or exacerbate symptoms associated with diabetic gastroparesis. Subjects were trained on the use of an interactive voice response system (IVRS) to record the severity of nine gastroparesis symptoms of the GCSI-DD and additional symptoms such as: severity of abdominal pain and abdominal discomfort, number of hours of nausea, number of episodes of vomiting, and overall severity of gastroparesis symptoms in a daily diary. The IVRS was used during the treatment period for self-reported assessments. Subjects completed these diary assessments via the IVRS each evening.
Subjects with a mean GCSI-DD total score of <2.0 or >4.0 during the 7-day Washout Period were excluded from the study.
At the Randomization Visit (Day 0), the Patient Assessment of Upper Gastrointestinal Disorders Symptoms (PAGI-SYM) Questionnaire, and disability questionnaires were administered to the subject and the Investigator and subject assessed overall gastroparesis symptom severity (OGS) prior to taking study drug. Subjects began taking the study drug at the clinical site with a single dose on Day 0. The subjects returned to the clinic for safety and efficacy evaluations on Visits 4, 5, 6, and 7 (Days 7, 14, 21, and 28).
At each scheduled study visit to the clinical study site, the IVRS daily diary compliance was reviewed. In addition, at Visit 5 (Day 14), the PAGI-SYM Questionnaire was administered to the subject and the Investigator and subject assessed OGS severity. At the Final Visit (Day 28) subjects took their last dose of study drug at the clinical site and returned their vial of unused/remaining study drug. The subject completed the PAGI-SYM, and disability questionnaires. The Investigator and subject assessed OGS and overall treatment effect (OTE). […]

[1] = all subjects (ITT), 10 mg IN four times daily
[2] = all subjects (ITT), 14 mg IN four times daily
[3] = females, 10 mg IN four times daily
[4] = females, 10 mg IN four times daily, listed as Metoclopramide
[5] = females, 14 mg IN four times daily
[6] = males, 10 mg IN four times daily
[7] = males, 10 mg IN four times daily, listed as Metoclopramide
[8] = males, 14 mg IN four times daily

## CCN(CC)CCNC(=O)c1cc(Cl)c(N)cc1OC [metoclopramide, -amino-5-chloro-N-(2-(diethylamino)ethyl)-2-methoxybenzamide]
[1]
  Mean Change from Baseline to Week 4 in mGCSI-DD: −1.2
  Mean mGCSI-DD total score at Week 4: 1.6
[2]
  Mean Change from Baseline to Week 4 in mGCSI-DD: −1.2
  Mean mGCSI-DD total score at Week 4: 1.7
All subjects
  Statistically significant improvement in mGCSI-DD score (in words): neither Treatment Arm experienced statistically significant improvement
All subjects, 10 mg IN vs placebo
  Difference of Least Square Means, mGCSI-DD change from Baseline to Week 4: −0.20
All subjects, 14 mg IN vs Metoclopramide 10 mg
  Difference of Least Square Means, mGCSI-DD change from Baseline to Week 4: 0.06
All subjects, 14 mg IN vs placebo
  Difference of Least Square Means, mGCSI-DD change from Baseline to Week 4: −0.14
Female subjects, 11 symptoms collected
  Symptoms with statistical separation or improved trends compared to placebo: 11 of 11
females
  Statistically significant improvement in mGCSI-DD score (in words): statistically significant improvement
[3]
  Mean Change from Baseline to Week 4 in mGCSI-DD: −1.2 (−1.2)
  Mean mGCSI-DD total score at Week 4: 1.6 (1.6)
  Bloating: A
  Bloating (listed under PAGI-SYM Questionnaire): A
  Days w/o Nausea: A (p < 0.05)
  Days w/o Upper Abdominal Pain or Upper Abdominal Discomfort: A
  Days w/o Vomiting: A
  Days w/o Vomiting or Nausea: A (p < 0.05)
  Days w/o Vomiting or Retching &, No Use of Rescue Medication: A
  Early Satiety: A
  Early Satiety (listed under PAGI-SYM Questionnaire): A
  Feeling Full: A (p < 0.05)
  GCSI-DD: A (p < 0.05)
  Investigator Assessment of Overall Gastroparesis Severity: A
  Investigator Assessment of Overall Treatment Effect: P
  Loss of Appetite: A
  Nausea: A (p < 0.05)
  Nausea Responder Analysis: A
  Nausea Response by Response Threshold: A (p < 0.05)
  Nausea/Vomiting (listed under PAGI-SYM Questionnaire): A
  Overall Severity of Gastroparesis Symptoms - Subject: A (p < 0.05)
  PAGI-SYM Questionnaire: A
  Retching: A
  Sheehan Disability Scales: A
  Stomach Fullness: A
  Stomach Larger: A
  Subject Assessment of Overall Gastroparesis Severity: A
  Subject Assessment of Overall Treatment Effect: A
  Upper Abdominal Discomfort: A
  Upper Abdominal Pain: A (p < 0.05)
  Upper Abdominal Pain/Discomfort (listed under PAGI-SYM Questionnaire): A
  Vomiting: A
  mGCSI-DD (primary endpoint): A (p < 0.05)
[4]
  Mean Change from Baseline to Week 4 in mGCSI-DD: −1.2
  Mean mGCSI-DD total score at Week 4: 1.6
females, 10 mg IN vs placebo
  Difference of Least Square Means, mGCSI-DD change from Baseline to Week 4: −0.38
[5]
  Mean Change from Baseline to Week 4 in mGCSI-DD: −1.3
  Mean mGCSI-DD total score at Week 4: 1.7 (1.7)
  Bloating: A
  Bloating (listed under PAGI-SYM Questionnaire): A
  Days w/o Nausea: A (p < 0.05)
  Days w/o Upper Abdominal Pain or Upper Abdominal Discomfort: P
  Days w/o Vomiting: A
  Days w/o Vomiting or Nausea: A (p < 0.05)
  Days w/o Vomiting or Retching &, No Use of Rescue Medication: A
  Early Satiety: A
  Early Satiety (listed under PAGI-SYM Questionnaire): A
  Feeling Full: A
  GCSI-DD: A (p < 0.05)
  Investigator Assessment of Overall Gastroparesis Severity: A
  Investigator Assessment of Overall Treatment Effect: A
  Loss of Appetite: A
  Nausea: A (p < 0.05)
  Nausea Responder Analysis: A (p < 0.05)
  Nausea Response by Response Threshold: A (p < 0.05)
  Nausea/Vomiting (listed under PAGI-SYM Questionnaire): A (p < 0.05)
  Overall Severity of Gastroparesis Symptoms - Subject: A
  PAGI-SYM Questionnaire: A
  Retching: A
  Sheehan Disability Scales: A
  Stomach Fullness: A
  Stomach Larger: A (p < 0.05)
  Subject Assessment of Overall Gastroparesis Severity: A
  Subject Assessment of Overall Treatment Effect: A
  Upper Abdominal Discomfort: A
  Upper Abdominal Pain: A (p < 0.05)
  Upper Abdominal Pain/Discomfort (listed under PAGI-SYM Questionnaire): A
  Vomiting: A
  mGCSI-DD (primary endpoint): A (p < 0.05)
females, 14 mg IN four times daily, listed as Metoclopramide
  Mean mGCSI-DD total score at Week 4: 1.7
females, 14 mg IN vs Metoclopramide 10 mg
  Difference of Least Square Means, mGCSI-DD change from Baseline to Week 4: −0.00
females, 14 mg IN vs placebo
  Difference of Least Square Means, mGCSI-DD change from Baseline to Week 4: −0.38
Male subjects, 11 symptoms collected
  Symptoms that showed a positive trend: 1 of 11
males
  Statistically significant improvement in mGCSI-DD score (in words): did not experience significant improvement
[6]
  Mean Change from Baseline to Week 4 in mGCSI-DD: −1.2 (−1.2)
  Mean mGCSI-DD total score at Week 4: 1.6 (1.6)
  Bloating: P
  Bloating (listed under PAGI-SYM Questionnaire): P
  Days w/o Nausea: P
  Days w/o Upper Abdominal Pain or Upper Abdominal Discomfort: P
  Days w/o Vomiting: P
  Days w/o Vomiting or Nausea: P
  Days w/o Vomiting or Retching &, No Use of Rescue Medication: A
  Early Satiety: P
  Early Satiety (listed under PAGI-SYM Questionnaire): P
  Feeling Full: P
  GCSI-DD: P
  Investigator Assessment of Overall Gastroparesis Severity: P
  Investigator Assessment of Overall Treatment Effect: A
  Loss of Appetite: P
  Nausea: P
  Nausea Responder Analysis: P
  Nausea Response by Response Threshold: P
  Nausea/Vomiting (listed under PAGI-SYM Questionnaire): P
  Overall Severity of Gastroparesis Symptoms - Subject: A
  PAGI-SYM Questionnaire: P
  Retching: P
  Sheehan Disability Scales: A
  Stomach Fullness: P
  Stomach Larger: P
  Subject Assessment of Overall Gastroparesis Severity: P
  Subject Assessment of Overall Treatment Effect: A
  Upper Abdominal Discomfort: P
  Upper Abdominal Pain: P
  Upper Abdominal Pain/Discomfort (listed under PAGI-SYM Questionnaire): P
  Vomiting: A
  mGCSI-DD (primary endpoint): P
[7]
  Mean Change from Baseline to Week 4 in mGCSI-DD: −1.2
  Mean mGCSI-DD total score at Week 4: 1.6
males, 10 mg IN vs placebo
  Difference of Least Square Means, mGCSI-DD change from Baseline to Week 4: 0.18
[8]
  Mean Change from Baseline to Week 4 in mGCSI-DD: −0.9
  Mean mGCSI-DD total score at Week 4: 1.7 (1.7)
  Bloating: P
  Bloating (listed under PAGI-SYM Questionnaire): P (p < 0.05)
  Days w/o Nausea: P
  Days w/o Upper Abdominal Pain or Upper Abdominal Discomfort: P (p < 0.05)
  Days w/o Vomiting: P
  Days w/o Vomiting or Nausea: P
  Days w/o Vomiting or Retching &, No Use of Rescue Medication: A
  Early Satiety: P (p < 0.05) and P
  Early Satiety (listed under PAGI-SYM Questionnaire): P (p < 0.05)
  Feeling Full: P
  GCSI-DD: P
  Investigator Assessment of Overall Gastroparesis Severity: P
  Investigator Assessment of Overall Treatment Effect: P
  Loss of Appetite: P (p < 0.05)
  Nausea: P
  Nausea Responder Analysis: P
  Nausea Response by Response Threshold: P
  Nausea/Vomiting (listed under PAGI-SYM Questionnaire): P
  Overall Severity of Gastroparesis Symptoms - Subject: A
  PAGI-SYM Questionnaire: P
  Retching: P
  Sheehan Disability Scales: A
  Stomach Fullness: P
  Stomach Larger: P (p < 0.05)
  Subject Assessment of Overall Gastroparesis Severity: P
  Subject Assessment of Overall Treatment Effect: P
  Upper Abdominal Discomfort: P
  Upper Abdominal Pain: P
  Upper Abdominal Pain/Discomfort (listed under PAGI-SYM Questionnaire): P
  Vomiting: A
  mGCSI-DD (primary endpoint): P
males, 14 mg IN four times daily, listed as Metoclopramide
  Mean mGCSI-DD total score at Week 4: 1.7
males, 14 mg IN vs Metoclopramide 10 mg
  Difference of Least Square Means, mGCSI-DD change from Baseline to Week 4: 0.14
males, 14 mg IN vs placebo
  Difference of Least Square Means, mGCSI-DD change from Baseline to Week 4: 0.32
